Some test systems named below: NCI-H522 lung; HOP-92 NSCLC; SK-OV-3 ovarian; SNB-19 CNS; MALME-3M melanoma; EKVX NSCLC; A549 NSCLC; LOX IMVI melanoma; MOLT-4 leukemia; HL-60(TB) leukemia.
Assay in all cases: NCI tumour cell line growth inhibition, 48 h

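How tested: cells in 96-well plates exposed to compound for 48 hours at five concentrations. GI50: concentration for 50% inhibition of growth. The concentration for full growth arrest is given as TGI.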 Bounds are passed on as bounds.

Take `COc1ccccc1NC(=O)/C(=C/c1ccccc1)C(C)=O`: the TGI in the assay on NCI-H522 lung is 58.2 µM; with HOP-92 NSCLC it was > 100 µM; in the assay on SK-OV-3 ovarian, > 100 µM; in the assay on SNB-19 CNS it was > 100 µM; in the assay with MALME-3M melanoma, > 100 µM; with EKVX NSCLC, > 100 µM. The TGI in the assay on A549 NSCLC is > 100 µM; in the assay with LOX IMVI melanoma it was > 100 µM; with MOLT-4 leukemia it was > 100 µM; in the assay with HL-60(TB) leukemia, 57.3 µM.
Take `CC1OC(c2ccc3c(c2O)C(=O)C2=C(C3=O)C3(O)C(=O)CC(C)(O)CC3(O)C=C2)CC(O)C1O` (stereo not given): the TGI was 5.86 µM with NCI-H522 lung; 30.7 µM in the assay with HOP-92 NSCLC; > 100 µM in the assay on SK-OV-3 ovarian; 58.8 µM with SNB-19 CNS; 12.8 µM with MALME-3M melanoma; 33.9 µM in the assay with EKVX NSCLC. For the same compound, the TGI was > 73.5 µM with A549 NSCLC, 30.9 µM in the assay with LOX IMVI melanoma, 15.3 µM with MOLT-4 leukemia and 4.07 µM with HL-60(TB) leukemia.
As to `COc1ccc(C2=C(N3CCc4ccccc43)C(=O)NC2=O)cc1`, the GI50 was > 17.9 µM in the assay on NCI-H522 lung; 0.642 µM in the assay with HOP-92 NSCLC; > 25 µM in the assay on SK-OV-3 ovarian; > 25 µM in the assay on SNB-19 CNS; > 25 µM with MALME-3M melanoma; > 24 µM in the assay on EKVX NSCLC. Further, the GI50 was > 25 µM with A549 NSCLC, > 25 µM in the assay on LOX IMVI melanoma, 25 µM in the assay on MOLT-4 leukemia and > 21.1 µM in the assay with HL-60(TB) leukemia. Moreover, the TGI with NCI-H522 lung is > 25 µM; in the assay with HOP-92 NSCLC, 19.7 µM; in the assay with SK-OV-3 ovarian, > 25 µM; with SNB-19 CNS, > 25 µM; in the assay on MALME-3M melanoma, > 25 µM; in the assay with EKVX NSCLC, > 25 µM. For the same compound, the TGI in the assay with A549 NSCLC, in the assay on LOX IMVI melanoma, with MOLT-4 leukemia and in the assay with HL-60(TB) leukemia was > 25 µM throughout.
As for `CCCCCCC(C)CCCCCCCCCCC(=O)O` (stereo not given), the TGI in the assay with NCI-H522 lung, with HOP-92 NSCLC, in the assay on SK-OV-3 ovarian, with SNB-19 CNS, with MALME-3M melanoma and with EKVX NSCLC was > 100 µM throughout. For the same compound, the TGI in the assay with A549 NSCLC, in the assay on LOX IMVI melanoma, in the assay with MOLT-4 leukemia and with HL-60(TB) leukemia was > 100 µM each time.
Consider `Nc1cc(-c2ccc(Cl)cc2)nn1-c1nnc(/C=C/c2ccco2)c(=O)[nH]1`, for which the GI50 is 8.95 µM in the assay with NCI-H522 lung; 2.6 µM in the assay on HOP-92 NSCLC; 6.09 µM with SK-OV-3 ovarian; 5.11 µM in the assay on SNB-19 CNS; 7.44 µM with MALME-3M melanoma; 4.11 µM in the assay on EKVX NSCLC. Moreover, the GI50 with A549 NSCLC was 3.46 µM; in the assay with LOX IMVI melanoma it was 4.82 µM; with MOLT-4 leukemia, 3.17 µM; in the assay on HL-60(TB) leukemia, 4.23 µM. Besides, the TGI with NCI-H522 lung is 40.3 µM; with HOP-92 NSCLC, 16.7 µM; in the assay with SK-OV-3 ovarian, > 86.2 µM; in the assay with SNB-19 CNS, > 83.3 µM; in the assay on MALME-3M melanoma, 54.6 µM; in the assay on EKVX NSCLC, > 55.7 µM. The TGI with A549 NSCLC is 22.2 µM; with LOX IMVI melanoma it was 37.8 µM; in the assay on MOLT-4 leukemia, > 43 µM; in the assay on HL-60(TB) leukemia it was > 28.6 µM.
Take `COc1cc(C2c3cc4c(cc3[C@@H](Nc3ccc5c(c3)OCCO5)C3COC(=O)[C@H]23)OCO4)cc(OC)c1O` (stereo not given in full): the TGI in the assay with NCI-H522 lung was determined as 5.43 µM; in the assay with HOP-92 NSCLC, 4.64 µM; in the assay on SK-OV-3 ovarian, 8.7 µM; in the assay on SNB-19 CNS, 66.6 µM; in the assay with MALME-3M melanoma, 26.4 µM; in the assay on EKVX NSCLC, 17 µM. The TGI stood at 7.15 µM with A549 NSCLC, 22.4 µM with LOX IMVI melanoma, 1.02 µM in the assay on MOLT-4 leukemia and 0.241 µM in the assay with HL-60(TB) leukemia.
For `CC1(C)CC(=O)C(CC2C(=O)c3ccccc3C2=O)C(=O)C1`, the TGI in the assay with NCI-H522 lung, in the assay on HOP-92 NSCLC, with SK-OV-3 ovarian, in the assay on SNB-19 CNS, with MALME-3M melanoma and in the assay on EKVX NSCLC was > 100 µM in each case. Moreover, the TGI in the assay on A549 NSCLC, in the assay on LOX IMVI melanoma, in the assay with MOLT-4 leukemia and in the assay on HL-60(TB) leukemia was > 100 µM each time.
As to `Cn1c(=O)nc2n(-c3ccc(Cl)c(C(F)(F)F)c3)c3ccccc3nc-2c1=O`, the TGI in the assay on NCI-H522 lung is 73 µM; in the assay on HOP-92 NSCLC, > 100 µM; in the assay with SK-OV-3 ovarian it was > 100 µM; with SNB-19 CNS it was 63.1 µM; with MALME-3M melanoma, 34.7 µM; with EKVX NSCLC, > 83.9 µM. For the same compound, the TGI is > 86.3 µM with A549 NSCLC, > 100 µM in the assay with LOX IMVI melanoma, > 100 µM in the assay on MOLT-4 leukemia and 46.2 µM in the assay with HL-60(TB) leukemia.
Consider `O=S1CSSC1`, for which the TGI was 25.9 µM with NCI-H522 lung; 57.4 µM in the assay with HOP-92 NSCLC; 53.3 µM in the assay with SK-OV-3 ovarian; > 100 µM in the assay with SNB-19 CNS; > 100 µM in the assay with MALME-3M melanoma; 77.8 µM with EKVX NSCLC. Further, the TGI in the assay with A549 NSCLC is > 100 µM; with LOX IMVI melanoma it was 20 µM; in the assay on MOLT-4 leukemia it was 43.1 µM; in the assay with HL-60(TB) leukemia, 61.5 µM.

These data come from PubChem BioAssay (NCI).
